tested on: test plant species; experiment: Post-emergent herbicidal activity test (greenhouse, foliar spray, visual growth reduction); format: in vivo; settings: post-emergence, 336 h, ALOMY: blackgrass (Alopecurus myosuroides), 140 g ai/ha, 14 days after application, read-out: Visual Growth Reduction (%) 14 Days After Application, ALOMY
How it was run: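 Visual scoring 14 d after treatment (0 = no injury, 100 = complete control) against nontreated and solvent-blank plants gave percent growth reduction. Foliar application used a track sprayer delivering 187 L/ha to seedlings at first or second true leaf stage, grown at 23–29 °C day, ~15 h photoperiod.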

SMILES | pest or weed control at 140 g/ha [%]
COC(=O)c1nc(-c2ccc(C(F)(F)F)nc2)c(O)cc1Cl [F87, methyl 5-chloro-3-hydroxy-6′-(trifluoromethyl)-[2,3′-bipyridine]-6-carboxylate] | 0 to 29
COC(=O)c1nc(-c2ccc(C(F)(F)F)c(C#N)c2Cl)ccc1Cl [F143, methyl 3-chloro-6-(2-chloro-3-cyano-4-(trifluoromethyl)phenyl)picolinate] | 0 to 29

same assay, conditions: post-emergence, 336 h, AMARE: redroot pigweed (Amaranthus retroflexus), 140 g ai/ha, 14 days after application, read-out: Visual Growth Reduction (%) 14 Days After Application, AMARE

SMILES | pest or weed control at 140 g/ha [%]
COC(=O)c1nc(-c2ccc(C(F)(F)F)nc2)c(O)cc1Cl [F87, methyl 5-chloro-3-hydroxy-6′-(trifluoromethyl)-[2,3′-bipyridine]-6-carboxylate] | 0 to 29
COC(=O)c1nc(-c2ccc(C(F)(F)F)c(C#N)c2Cl)ccc1Cl [F143, methyl 3-chloro-6-(2-chloro-3-cyano-4-(trifluoromethyl)phenyl)picolinate] | 45 to 59

same assay, conditions: post-emergence, 336 h, AVEFA: wild oat (Avena fatua), 140 g ai/ha, 14 days after application, read-out: Visual Growth Reduction (%) 14 Days After Application, AVEFA

SMILES | pest or weed control at 140 g/ha [%]
COC(=O)c1nc(-c2ccc(C(F)(F)F)nc2)c(O)cc1Cl [F87, methyl 5-chloro-3-hydroxy-6′-(trifluoromethyl)-[2,3′-bipyridine]-6-carboxylate] | 0 to 29
COC(=O)c1nc(-c2ccc(C(F)(F)F)c(C#N)c2Cl)ccc1Cl [F143, methyl 3-chloro-6-(2-chloro-3-cyano-4-(trifluoromethyl)phenyl)picolinate] | 0 to 29

same assay, conditions: post-emergence, 336 h, CHEAL: lambsquarters (Chenopodium album), 140 g ai/ha, 14 days after application, read-out: Visual Growth Reduction (%) 14 Days After Application, CHEAL

SMILES | pest or weed control at 140 g/ha [%]
COC(=O)c1nc(-c2ccc(C(F)(F)F)nc2)c(O)cc1Cl [F87, methyl 5-chloro-3-hydroxy-6′-(trifluoromethyl)-[2,3′-bipyridine]-6-carboxylate] | 0 to 29
COC(=O)c1nc(-c2ccc(C(F)(F)F)c(C#N)c2Cl)ccc1Cl [F143, methyl 3-chloro-6-(2-chloro-3-cyano-4-(trifluoromethyl)phenyl)picolinate] | 30 to 44

same assay, conditions: post-emergence, 336 h, CIRAR: canada thistle (Cirsium arvense), 140 g ai/ha, 14 days after application, read-out: Visual Growth Reduction (%) 14 Days After Application, CIRAR

SMILES | pest or weed control at 140 g/ha [%]
COC(=O)c1nc(-c2ccc(C(F)(F)F)nc2)c(O)cc1Cl [F87, methyl 5-chloro-3-hydroxy-6′-(trifluoromethyl)-[2,3′-bipyridine]-6-carboxylate] | 0 to 29
COC(=O)c1nc(-c2ccc(C(F)(F)F)c(C#N)c2Cl)ccc1Cl [F143, methyl 3-chloro-6-(2-chloro-3-cyano-4-(trifluoromethyl)phenyl)picolinate] | 0 to 29

same assay, conditions: post-emergence, 336 h, CYPES: yellow nutsedge (Cyperus esculentus), 140 g ai/ha, 14 days after application, read-out: Visual Growth Reduction (%) 14 Days After Application, CYPES

SMILES | pest or weed control at 140 g/ha [%]
COC(=O)c1nc(-c2ccc(C(F)(F)F)nc2)c(O)cc1Cl [F87, methyl 5-chloro-3-hydroxy-6′-(trifluoromethyl)-[2,3′-bipyridine]-6-carboxylate] | 0 to 29
COC(=O)c1nc(-c2ccc(C(F)(F)F)c(C#N)c2Cl)ccc1Cl [F143, methyl 3-chloro-6-(2-chloro-3-cyano-4-(trifluoromethyl)phenyl)picolinate] | 0 to 29

same assay, conditions: post-emergence, 336 h, DIGSA: crabgrass (Digitaria sanguinalis), 140 g ai/ha, 14 days after application, read-out: Visual Growth Reduction (%) 14 Days After Application, DIGSA

SMILES | pest or weed control at 140 g/ha [%]
COC(=O)c1nc(-c2ccc(C(F)(F)F)nc2)c(O)cc1Cl [F87, methyl 5-chloro-3-hydroxy-6′-(trifluoromethyl)-[2,3′-bipyridine]-6-carboxylate] | 0 to 29
COC(=O)c1nc(-c2ccc(C(F)(F)F)c(C#N)c2Cl)ccc1Cl [F143, methyl 3-chloro-6-(2-chloro-3-cyano-4-(trifluoromethyl)phenyl)picolinate] | 75 to 84

same assay, conditions: post-emergence, 336 h, ECHCG: barnyardgrass (Echinochloa crus-galli), 140 g ai/ha, 14 days after application, read-out: Visual Growth Reduction (%) 14 Days After Application, ECHCG

SMILES | pest or weed control at 140 g/ha [%]
COC(=O)c1nc(-c2ccc(F)cc2F)ccc1Cl [F268, Methyl 3-chloro-6-(2,4-difluorophenyl) picolinate] | 0 to 29
COC(=O)c1nc(-c2ccc(C(F)(F)F)nc2)c(O)cc1Cl [F87, methyl 5-chloro-3-hydroxy-6′-(trifluoromethyl)-[2,3′-bipyridine]-6-carboxylate] | 0 to 29
COC(=O)c1nc(-c2ccc(C(F)(F)F)c(C#N)c2Cl)ccc1Cl [F143, methyl 3-chloro-6-(2-chloro-3-cyano-4-(trifluoromethyl)phenyl)picolinate] | 0 to 29

same assay, conditions: post-emergence, 336 h, IPOHE: ivy-leaf morning glory (Ipomoea hederacea), 140 g ai/ha, 14 days after application, read-out: Visual Growth Reduction (%) 14 Days After Application, IPOHE

SMILES | pest or weed control at 140 g/ha [%]
COC(=O)c1nc(-c2ccc(F)cc2F)ccc1Cl [F268, Methyl 3-chloro-6-(2,4-difluorophenyl) picolinate] | 0 to 29
COC(=O)c1nc(-c2ccc(C(F)(F)F)nc2)c(O)cc1Cl [F87, methyl 5-chloro-3-hydroxy-6′-(trifluoromethyl)-[2,3′-bipyridine]-6-carboxylate] | 0 to 29
COC(=O)c1nc(-c2ccc(C(F)(F)F)c(C#N)c2Cl)ccc1Cl [F143, methyl 3-chloro-6-(2-chloro-3-cyano-4-(trifluoromethyl)phenyl)picolinate] | 75 to 84

same assay, conditions: post-emergence, 336 h, KCHSC: kochia (Bassia scoparia), 140 g ai/ha, 14 days after application, read-out: Visual Growth Reduction (%) 14 Days After Application, KCHSC

SMILES | pest or weed control at 140 g/ha [%]
COC(=O)c1nc(-c2ccc(F)cc2F)ccc1Cl [F268, Methyl 3-chloro-6-(2,4-difluorophenyl) picolinate] | 0 to 29
COC(=O)c1nc(-c2ccc(C(F)(F)F)nc2)c(O)cc1Cl [F87, methyl 5-chloro-3-hydroxy-6′-(trifluoromethyl)-[2,3′-bipyridine]-6-carboxylate] | 0 to 29
COC(=O)c1nc(-c2ccc(C(F)(F)F)c(C#N)c2Cl)ccc1Cl [F143, methyl 3-chloro-6-(2-chloro-3-cyano-4-(trifluoromethyl)phenyl)picolinate] | 0 to 29

same assay, conditions: post-emergence, 336 h, ORYSA: rice (Oryza sativa), 140 g ai/ha, 14 days after application, read-out: Visual Growth Reduction (%) 14 Days After Application, ORYSA

SMILES | pest or weed control at 140 g/ha [%]
COC(=O)c1nc(-c2ccc(F)cc2F)ccc1Cl [F268, Methyl 3-chloro-6-(2,4-difluorophenyl) picolinate] | 0 to 29
COC(=O)c1nc(-c2ccc(C(F)(F)F)nc2)c(O)cc1Cl [F87, methyl 5-chloro-3-hydroxy-6′-(trifluoromethyl)-[2,3′-bipyridine]-6-carboxylate] | 0 to 29
COC(=O)c1nc(-c2ccc(C(F)(F)F)c(C#N)c2Cl)ccc1Cl [F143, methyl 3-chloro-6-(2-chloro-3-cyano-4-(trifluoromethyl)phenyl)picolinate] | 0 to 29

same assay, conditions: post-emergence, 336 h, SETFA: giant foxtail (Setaria faberi), 140 g ai/ha, 14 days after application, read-out: Visual Growth Reduction (%) 14 Days After Application, SETFA

SMILES | pest or weed control at 140 g/ha [%]
COC(=O)c1nc(-c2ccc(F)cc2F)ccc1Cl [F268, Methyl 3-chloro-6-(2,4-difluorophenyl) picolinate] | 0 to 29
COC(=O)c1nc(-c2ccc(C(F)(F)F)nc2)c(O)cc1Cl [F87, methyl 5-chloro-3-hydroxy-6′-(trifluoromethyl)-[2,3′-bipyridine]-6-carboxylate] | 0 to 29
COC(=O)c1nc(-c2ccc(C(F)(F)F)c(C#N)c2Cl)ccc1Cl [F143, methyl 3-chloro-6-(2-chloro-3-cyano-4-(trifluoromethyl)phenyl)picolinate] | 0 to 29

same assay, conditions: post-emergence, 336 h, SORVU: grain sorghum (Sorghum vulgare), 140 g ai/ha, 14 days after application, read-out: Visual Growth Reduction (%) 14 Days After Application, SORVU

SMILES | pest or weed control at 140 g/ha [%]
COC(=O)c1nc(-c2ccc(F)cc2F)ccc1Cl [F268, Methyl 3-chloro-6-(2,4-difluorophenyl) picolinate] | 60 to 74
COC(=O)c1nc(-c2ccc(C(F)(F)F)nc2)c(O)cc1Cl [F87, methyl 5-chloro-3-hydroxy-6′-(trifluoromethyl)-[2,3′-bipyridine]-6-carboxylate] | 0 to 29
COC(=O)c1nc(-c2ccc(C(F)(F)F)c(C#N)c2Cl)ccc1Cl [F143, methyl 3-chloro-6-(2-chloro-3-cyano-4-(trifluoromethyl)phenyl)picolinate] | 60 to 74

same assay, conditions: post-emergence, 336 h, STEME: common chickweed (Stellaria media), 140 g ai/ha, 14 days after application, read-out: Visual Growth Reduction (%) 14 Days After Application, STEME

SMILES | pest or weed control at 140 g/ha [%]
COC(=O)c1nc(-c2ccc(F)cc2F)ccc1Cl [F268, Methyl 3-chloro-6-(2,4-difluorophenyl) picolinate] | 0 to 29
COC(=O)c1nc(-c2ccc(C(F)(F)F)nc2)c(O)cc1Cl [F87, methyl 5-chloro-3-hydroxy-6′-(trifluoromethyl)-[2,3′-bipyridine]-6-carboxylate] | 0 to 29
COC(=O)c1nc(-c2ccc(C(F)(F)F)c(C#N)c2Cl)ccc1Cl [F143, methyl 3-chloro-6-(2-chloro-3-cyano-4-(trifluoromethyl)phenyl)picolinate] | 0 to 29

same assay, conditions: post-emergence, 336 h, TRZAS: wheat, spring (Triticum aestivum), 140 g ai/ha, 14 days after application, read-out: Visual Growth Reduction (%) 14 Days After Application, TRZAS

SMILES | pest or weed control at 140 g/ha [%]
COC(=O)c1nc(-c2ccc(F)cc2F)ccc1Cl [F268, Methyl 3-chloro-6-(2,4-difluorophenyl) picolinate] | 0 to 29
COC(=O)c1nc(-c2ccc(C(F)(F)F)nc2)c(O)cc1Cl [F87, methyl 5-chloro-3-hydroxy-6′-(trifluoromethyl)-[2,3′-bipyridine]-6-carboxylate] | 0 to 29
COC(=O)c1nc(-c2ccc(C(F)(F)F)c(C#N)c2Cl)ccc1Cl [F143, methyl 3-chloro-6-(2-chloro-3-cyano-4-(trifluoromethyl)phenyl)picolinate] | 0 to 29

same assay, conditions: post-emergence, 336 h, blackgrass (Alopecurus myosuroides), 14 Days After Application, 140 g ai/ha, read-out: Visual Growth Reduction (%) ALOMY

SMILES | pest or weed control at 140 g/ha [%]
COC(=O)c1nc(-c2ccc(F)cc2F)ccc1Cl [F268, Methyl 3-chloro-6-(2,4-difluorophenyl) picolinate] | 0 to 29

same assay, conditions: post-emergence, 336 h, canada thistle (Cirsium arvense), 14 Days After Application, 140 g ai/ha, read-out: Visual Growth Reduction (%) CIRAR

SMILES | pest or weed control at 140 g/ha [%]
COC(=O)c1nc(-c2ccc(F)cc2F)ccc1Cl [F268, Methyl 3-chloro-6-(2,4-difluorophenyl) picolinate] | 30 to 44

same assay, conditions: post-emergence, 336 h, crabgrass (Digitaria sanguinalis), 14 Days After Application, 140 g ai/ha, read-out: Visual Growth Reduction (%) DIGSA

SMILES | pest or weed control at 140 g/ha [%]
COC(=O)c1nc(-c2ccc(F)cc2F)ccc1Cl [F268, Methyl 3-chloro-6-(2,4-difluorophenyl) picolinate] | 0 to 29

same assay, conditions: post-emergence, 336 h, lambsquarters (Chenopodium album), 14 Days After Application, 140 g ai/ha, read-out: Visual Growth Reduction (%) CHEAL

SMILES | pest or weed control at 140 g/ha [%]
COC(=O)c1nc(-c2ccc(F)cc2F)ccc1Cl [F268, Methyl 3-chloro-6-(2,4-difluorophenyl) picolinate] | 60 to 74

same assay, conditions: post-emergence, 336 h, redroot pigweed (Amaranthus retroflexus), 14 Days After Application, 140 g ai/ha, read-out: Visual Growth Reduction (%) AMARE

SMILES | pest or weed control at 140 g/ha [%]
COC(=O)c1nc(-c2ccc(F)cc2F)ccc1Cl [F268, Methyl 3-chloro-6-(2,4-difluorophenyl) picolinate] | 0 to 29

same assay, conditions: post-emergence, 336 h, wild oat (Avena fatua), 14 Days After Application, 140 g ai/ha, read-out: Visual Growth Reduction (%) AVEFA

SMILES | pest or weed control at 140 g/ha [%]
COC(=O)c1nc(-c2ccc(F)cc2F)ccc1Cl [F268, Methyl 3-chloro-6-(2,4-difluorophenyl) picolinate] | 0 to 29

same assay, conditions: post-emergence, 336 h, yellow nutsedge (Cyperus esculentus), 14 Days After Application, 140 g ai/ha, read-out: Visual Growth Reduction (%) CYPES

SMILES | pest or weed control at 140 g/ha [%]
COC(=O)c1nc(-c2ccc(F)cc2F)ccc1Cl [F268, Methyl 3-chloro-6-(2,4-difluorophenyl) picolinate] | 0 to 29

— patent US20230017045A1, “PYRIDINE AND PYRIMIDINE CARBOXYLATE HERBICIDES AND METHODS OF USE THEREOF” (Dow AgroSciences LLC, priority 2017, published 2023)
